# How the values were obtained:
# [1] = tested on: HIV-1 gag/pol −1 frameshift signal sequence (HIV-1 frameshift construct); assay: Stably transfected dual fluorescent reporter recoding assay in Flp-In CV1 cells (−1 frame construct); type: cell-based; conditions: for DsRed/EGFP ratio / Percentage decrease in ratio / Minus 1 Frameshift Construct EGFP signal, Average / Minus 1 Frameshift Construct DsRed signal, Average: 120 hours; for DsRed/EGFP ratio / Percentage decrease in ratio: stable Flp-In CV1 cells; for DsRed/EGFP ratio: not normalised to Null 0, expressed as a percentage; for Percentage decrease in ratio: vs no drug; for Minus 1 Frameshift Construct EGFP signal, Average: 485 excitation 515 emission; for Minus 1 Frameshift Construct DsRed signal, Average: 535 excitation 590 emission
# Experimental: The translational recoding construct described above was excised via Hind III and Not I restrictions sites and ligated into a Flp-In™ pcDNA5/FRT expression vector (Invitrogen Life Technologies) before being stably transformed into Flp-In™ CV1 cells (Invitrogen Life Technologies) according to the manufacturer's instructions.
# Flp-In CV1 cells (CV1 cells), as described in Example 2, transfected with the −1 frame construct, and untransfected CV1 cells were grown, harvested, trypsinised, washed and diluted to 1×10^5 cells/ml all under standard conditions.
# Cells were then seeded in 96 well plates under standard conditions. The plates were then incubated for 120 hours at 37° C.
# The cells were washed 3 times with Phosphate Buffered Saline (PBS) to remove any traces of culture medium. 100 ul of Passive Lysis buffer (Promega) was added. The cells were frozen. The frozen cells were then thawed and fluorescence intensity was read in the Tecan Genios Pro plate reader.
# Plate reader setting were as follows:
# Filters 485 excitation, 515 emission
# Filters 535 excitation, 590 emission
# As a Null 0 frameshift construct was not used in this experiment ratios of the DsRed to EGFP signal were calculated to take into account the decrease in the EGFP signal with increasing drug concentrations.
# The calculation was similar to example 3, with the counts averaged, the control cell counts removed before working out the ratio of the DsRed signal to the EGFP signal. Normalisation using a Null 0 frame construct could not be performed, with the results below being expressed as a percentage. The calculation was a follows: [[DsRed signal: HIV-1 frameshift construct]/[EGFP signal: HIV-1 frameshift construct]]
# [2] = tested on: HIV-1 gag/pol −1 frameshift signal sequence (HIV-1 frameshift construct); assay: Dual fluorescent reporter (EGFP/DsRed) recoding assay in transiently transfected COS-7 cells, with Null 0 control construct; type: cell-based; conditions: for Minus 1 Frameshift Construct EGFP signal, Average / Null 0 Frameshift Construct EGFP signal, Average: 485 excitation 520-P emission; for Minus 1 Frameshift Construct DsRed signal, Average / Null 0 Frameshift Construct DsRed signal, Average: 525 excitation 600LP emission
# Experimental: Mammalian COS-7 cells were grown, harvested, trypsinised, washed and diluted to 1×10^5 cells/ml all under standard conditions.
# The diluted cells were then split into two equal portions. One portion was transiently transfected with the recoding construct, and other with the Null 0 frame control construct. Transient transfection was performed using 2 μL of FuGENE® 6 transfection reagent (Roche) and 500 ng of DNA for every mL of cells, in accordance with the manufacturing instructions.
# Transfected cells were seeded in 24 well plates under standard conditions. Cycloheximide was added in triplicate at 50 nM and the plates were then incubated for 48 hours at 37° C.
# The cells were washed 3 times with Phosphate Buffered Saline (PBS) to remove any traces of culture medium. 100 ul of Passive Lysis buffer (Promega) was added. The cells were frozen. The frozen cells were then thawed and transferred to a 96 well plate, and fluorescence intensity was read in the BMG PolarStar plate reader.
# Plate reader settings were as follows:
# Filters 485 excitation, 520-P emission
# Filters 544 excitation, 590 emission
# [[DsRed signal: HIV-1 frameshift construct]/[EGFP signal: HIV-1 frameshift construct]]/[[DsRed signal: Null 0 frameshift construct]/[EGFP signal: Null 0 frameshift construct]]
# The diluted cells were then split into two equal portions. One portion was transfected, as described in Example 3, with the recoding construct, and other with the Null 0 frame control construct.
# Cells were then seeded in 24 well plates under standard conditions. Anisomycin was added in triplicate at 50 nM and the plates were then incubated for 48 hours at 37° C.
# The cells were prepared as described in examples 3 and 4.
# DsRed signal at 525 excitation, 600LP emission
# EGFP signal at 485 excitation, 520-P emission
# Frameshift figures, shown in Table 5, were calculated using the formula shown in Example 3 using data from Tables 1, 2, 3 and 4.
# Transfected cells were prepared as described in Example 5, and treated with 0 nM (no drug) 100 nM, 200 nM, 300 nM, 400 nM and 500 nM concentrations of anisomycin.
# Incubation, plate reader setting and readings were as described in Example 5.
# For the anisomycin titrations, the frameshift figures, shown in Table 10, were calculated using the formula shown in Example 3 using data from Tables 6, 7, 8 and 9.
# [3] = 50 nM, 48 hours, 485 excitation, 520-P emission
# [4] = 50 nM, 48 hours, 544 excitation, 590 emission
# [5] = 100 nM, COS-7, 525/600LP filters, vs no drugs
smiles,measurement,setting,value
COc1ccc(C[C@H]2NC[C@H](O)[C@H]2OC(C)=O)cc1 [Anisomycin],DsRed/EGFP ratio,[1]; 50 nM,7.81%
same,Percentage decrease in ratio,[1]; 50 nM,−1.47%
same,"Minus 1 Frameshift Construct EGFP signal, Average",[1]; 50 nM,12588
same,"Minus 1 Frameshift Construct DsRed signal, Average",[1]; 50 nM,1348
same,DsRed/EGFP ratio,[1]; 100 nM,7.60%
same,Percentage decrease in ratio,[1]; 100 nM,1.17%
same,"Minus 1 Frameshift Construct EGFP signal, Average",[1]; 100 nM,12188
same,"Minus 1 Frameshift Construct DsRed signal, Average",[1]; 100 nM,1301
same,DsRed/EGFP ratio,[1]; 500 nM,1.44%
same,Percentage decrease in ratio,[1]; 500 nM,81.34%
same,"Minus 1 Frameshift Construct EGFP signal, Average",[1]; 500 nM,8977
same,"Minus 1 Frameshift Construct DsRed signal, Average",[1]; 500 nM,795
same,DsRed/EGFP ratio,[1]; 1000 nM,−0.81%
same,Percentage decrease in ratio,[1]; 1000 nM,110.53%
same,"Minus 1 Frameshift Construct EGFP signal, Average",[1]; 1000 nM,8386
same,"Minus 1 Frameshift Construct DsRed signal, Average",[1]; 1000 nM,704
same,DsRed/EGFP ratio,[1]; 2000 nM,−3.13%
same,Percentage decrease in ratio,[1]; 2000 nM,140.70%
same,"Minus 1 Frameshift Construct EGFP signal, Average",[1]; 2000 nM,7681
same,"Minus 1 Frameshift Construct DsRed signal, Average",[1]; 2000 nM,641
same,% decrease in ratio over concentration range,"[1]; range between 50 nM and 2000 nM, stable cells, result in words",dose responsive effect
same,decrease in frameshift from the original (no drug) value,"[2]; 50 nM, 48 hours, COS-7, 544/590 filters",5.3%
same,Frameshift,"[2]; 50 nM, 48 hours, COS-7, DsRed 544 excitation/590 emission, EGFP 485/520-P, normalised to Null 0 construct",5.64%
same,absolute change frameshift efficiency,"[2]; 50 nM, 48 hours, COS-7, vs no drug control, 544/590 filters",0.32%
same,"EGFP signal, HIV-1 frameshift construct, average",[2]; [3],32666 RFU
same,"EGFP signal, HIV-1 frameshift construct, average minus control",[2]; [3],32336 RFU
same,"EGFP signal, Null 0 frameshift construct, average",[2]; [3],56491 RFU
same,"EGFP signal, Null 0 frameshift construct, average minus control",[2]; [3],56161 RFU
same,"DsRed signal, HIV-1 frameshift construct, average",[2]; [4],1975 RFU
same,"DsRed signal, HIV-1 frameshift construct, average minus control",[2]; [4],1891 RFU
same,"DsRed signal, Null 0 frameshift construct, average",[2]; [4],58293 RFU
same,"DsRed signal, Null 0 frameshift construct, average minus control",[2]; [4],58209 RFU
same,"Minus 1 Frameshift Construct EGFP signal, Average",[2]; 100 nM,31923
same,"Null 0 Frameshift Construct EGFP signal, Average",[2]; 100 nM,55732
same,"Minus 1 Frameshift Construct DsRed signal, Average",[2]; 100 nM,3072
same,"Null 0 Frameshift Construct DsRed signal, Average",[2]; 100 nM,55345
same,Percentage decrease in frameshift,[2]; [5],1.39%
same,absolute change in frameshift efficiency,[2]; [5],0.11%
same,Percentage decrease in frameshift,"[2]; 100 nM, COS-7, 525/600LP filters, vs no drugs, listed as anisomycin",1.4%
same,Frameshift,"[2]; 100 nM, COS-7, DsRed 525 excitation/600LP emission",7.89%
same,Frameshift,"[2]; 100 nM, COS-7, DsRed 525 excitation/600LP emission, listed as anisomycin",7.88%
same,"Minus 1 Frameshift Construct EGFP signal, Average",[2]; 200 nM,37862
same,"Null 0 Frameshift Construct EGFP signal, Average",[2]; 200 nM,51856
same,"Minus 1 Frameshift Construct DsRed signal, Average",[2]; 200 nM,3555
same,"Null 0 Frameshift Construct DsRed signal, Average",[2]; 200 nM,50020
same,Percentage decrease in frameshift,"[2]; 200 nM, COS-7, 525/600LP filters, vs no drugs",−2.21%
same,Frameshift,"[2]; 200 nM, COS-7, DsRed 525 excitation/600LP emission",8.17%
same,"Minus 1 Frameshift Construct EGFP signal, Average",[2]; 300 nM,32560
same,"Null 0 Frameshift Construct EGFP signal, Average",[2]; 300 nM,38929
same,"Minus 1 Frameshift Construct DsRed signal, Average",[2]; 300 nM,2995
same,"Null 0 Frameshift Construct DsRed signal, Average",[2]; 300 nM,36774
same,Percentage decrease in frameshift,"[2]; 300 nM, COS-7, 525/600LP filters, vs no drugs",1.47%
same,Frameshift,"[2]; 300 nM, COS-7, DsRed 525 excitation/600LP emission",7.88%
same,"Minus 1 Frameshift Construct EGFP signal, Average",[2]; 400 nM,18630
same,"Null 0 Frameshift Construct EGFP signal, Average",[2]; 400 nM,18532
same,"Minus 1 Frameshift Construct DsRed signal, Average",[2]; 400 nM,1804
same,"Null 0 Frameshift Construct DsRed signal, Average",[2]; 400 nM,16734
same,Percentage decrease in frameshift,"[2]; 400 nM, COS-7, 525/600LP filters, vs no drugs",8.53%
same,Frameshift,"[2]; 400 nM, COS-7, DsRed 525 excitation/600LP emission",7.32%
same,"Minus 1 Frameshift Construct EGFP signal, Average",[2]; 500 nM,9376
same,"Null 0 Frameshift Construct EGFP signal, Average",[2]; 500 nM,8119
same,"Minus 1 Frameshift Construct DsRed signal, Average",[2]; 500 nM,1121
same,"Null 0 Frameshift Construct DsRed signal, Average",[2]; 500 nM,7045
same,Percentage decrease in frameshift,"[2]; 500 nM, COS-7, 525/600LP filters, vs no drugs",16.21%
same,Frameshift,"[2]; 500 nM, COS-7, DsRed 525 excitation/600LP emission",6.70%
same,effect on −1 frameshifting,[2]; result in words,antagonists to −1 frameshifting
